Patent US5919701A, “Oligonucleotides with activity against human immunodeficiency virus” (priority 1997, dated 1999)

Columns and labels:
HIV-1 (LAI) [1] = experiment: Plaque assay, HeLa-CD4 cells infected with HIV-1 (LAI); assay type: cell-based, HIV-1; HeLa-CD4 cells; details: HeLa-CD4, HIV-1 (LAI), plaques formed
Protocol: (§1) HeLa-CD4 cells were tested using a plaque assay as described below. Specific cells (as described in Table 4) were detached using trypsin-EDTA for 8-10 minutes at 37° C. The cells were then centrifuged at 100 rpm for 10 minutes. Cells were resuspended in 5-10 ml of maintenance medium (Dulbecco's Modified Eagle Medium ("DMEM") containing 10% fetal calf serum, […], […], and 2 mM glutamine). Cells were maintained by splitting the culture once weekly into two 75 cm^2 T-flasks at a concentration of 3×10^4 cells/ml in a total volume of […] maintenance medium.
(§2) On day 0, the cells were plated into the wells of a 24 well tissue culture plate (Falcon #3047) at a concentration of 2.4×10^4 cells per well. The cells were incubated overnight at 37° C. The next day the medium was aspirated, and 200 μl of HIV virus at a multiplicity of infection ("MOI") of 0.03 was added to each well. The plates were then incubated for 2 hours at 37° C. After the 2 hour incubation, the cells were treated with 800 μl of drug at a concentration (in DMEM) of 1.25× of the final concentration.
(§3) The treated cells were incubated for 3 days at 37° C. On day 4 the plate was fixed with 1 ml/well of 100% methanol for 15 minutes. The wells were then aspirated and 0.5 ml of 0.3% crystal violet stain was added to the wells. […] Plaques were counted using a microscope. […]

HIV-1 (LAI) [2] = experiment: p24 assay, PBMC infected with HIV-1 (LAI); assay type: cell-based, HIV-1; PBMC
[3] = test system: replication defective HIV generated by 8e5 cells; experiment: p24 production by 8e5 cells (p24 capture ELISA of cell lysates); assay type: cell-based, HIV; human T-cell line 8e5; details: for inhibiting p24 production (in words): summary of Table 3; for inhibition / p24 production: range over experiments
Protocol: The effect of several phosphorothioate antisense oligonucleotides on HIV replication was determined by measuring p24 (an HIV-specific polypeptide) produced by 8e5 cells. The 8e5 cell line is a human T-cell line that generates replication defective HIV (Folks et al. U.S. Pat. No. 4,752,565). The defective HIV contains a single integrated provirus that expresses all HIV proteins at levels typically observed in chronically infected cell lines except those encoded by pol. This defect is due to a single base insertion that causes a frame shift mutation in pol.
Oligonucleotides having phosphorothioate linkages were synthesized according to Bhatt supra. Synthesized oligonucleotides were purified using HPLC, extracted with ethyl acetate, ethanol precipitated, washed with 80% ethanol and suspended in sterile water to generate high concentration stock solutions that facilitated small volume addition (2-20 μl).
Phosphorothioate antisense oligonucleotides were added directly to 8e5 cultures. Sterile water and non-specific phosphorothioate oligonucleotides were utilized as controls. The cultures were harvested after 4 days, and the viable cell count and production of p24 antigen were determined. Cell lysates were prepared by spinning down cells from 2 ml wells at 1000 rpm for 10 minutes at 4° C. using a Beckman J-10, and removing the supernatant. The cells were then washed with 5 ml of Hanks balanced salt solution (Gibco) or sterile saline solution (0.9% NaCl), and spun down at 1000 rpm for 10 minutes at 4° C. using a Beckman J-10. The cells were resuspended in 300 μl of TSM (10 mM Tris-HCl pH 7.5, 150 mM NaCl, 2 MM MgCl2) with 0.5% NP-40, and incubated on ice for 5 minutes. The nuclei and cellular debris were then spun down at 2000 rpm using a Beckman J-10. The amount of p24 antigen was determined in cell lysates using a p24 capture ELISA (American Biotechnologies, Inc.).
The ELISA assay for p24 was selected as a measure of HIV replication because expression of tat and rev are required for efficient p24 production. The percentage of HIV p24 production was calculated as p24/cell production by antisense treated cells divided by p24/cell production by control treated cells. Control treated cells were treated with a random control phosphorothioate oligonucleotide (SEQ. ID. NO. 47: AGGCTTCATCACGTGGACATTGACG).

[4] = test system: HIV patient isolates (AO18); experiment: Plaque assay, HeLa-CD4 cells infected with patient isolates (AO18); assay type: cell-based, HIV; HeLa-CD4 cells; details: plaques formed
Protocol: as §1, §2, §3

[5] = test system: HIV patient isolates (PO22); experiment: Plaque assay, HeLa-CD4 cells infected with patient isolates (PO22); assay type: cell-based, HIV; HeLa-CD4 cells; details: plaques formed
Protocol: as §1, §2, §3

HIV-2 (ROD) = experiment: Plaque assay, HeLa-CD4 cells infected with HIV-2 (ROD); assay type: cell-based, HIV-2; HeLa-CD4 cells; details: HeLa-CD4, HIV-2 (ROD), plaques formed
Protocol: as §1, §2, §3

human bone marrow cells = experiment: Cytotoxicity: colony formation of human bone marrow cells; assay type: cell-based; details: agar medium with G-CSF, eight days in culture
Protocol: The cytotoxicity of the test oligonucleotides was determined in a system using primary human blood cells using techniques known to those of skill in the art to measure cytotoxicity of anti-neoplastic agents. Human bone marrow cells were harvested and washed in an isotonic solution, then incubated in tissue culture medium containing 0.3% (w/v) agar, 20% (v/v) fetal calf serum, and 10 ng/ml granulocyte-colony stimulating factor with varying amounts of the two test oligonucleotides. The number of colonies formed were measured after eight days in culture. The IC50 for colony formation in this experiment was 2-3 μM for SEQ. ID. NO: 18 and 20-30 μM for SEQ. ID. NO: 22.

[6] = In vivo mouse study: blood parameters, body weight and organ morphology; details: mice, 100 mg/kg
Protocol: In vivo experiments were also performed using rodent models. These experiments focused on the potential for gross morphological changes in blood tissue upon administration of a phosphorothioate linked oligonucleotide having the nucleic acid sequence of SEQ. ID. NO: 18 (in a solution of PBS). Three mice were given the oligonucleotide at a dose of 100 mg/kg body weight. Four control mice were given PBS alone. Blood samples were taken from each animal at t=0, and at 24 hours each animal was sacrificed and the organs removed. The experimental findings with regard to blood parameters are shown in Table 5, and the results obtained upon visual inspection of the organs are shown in Table 6.

[7] = 10 μM, Table 3 (small length oligonucleotides)
[8] = 20 μM, Table 3 (small length oligonucleotides)
[9] = 2 μM, 4 days, Table 2, relative to cells treated with random control oligonucleotide SEQ. ID. NO. 47
[10] = 10 μM, 4 days, Table 2, relative to cells treated with random control oligonucleotide SEQ. ID. NO. 47

Compound: Cc1cn([C@H]2C[C@H](N=[N+]=[N-])[C@@H](CO)O2)c(=O)[nH]c1=O [AZT, reference compound]
- IC50 (HIV-1 (LAI) [1]; Human immunodeficiency virus 1): 7 to 20 nM
- IC50 (HIV-1 (LAI) [2]; Human immunodeficiency virus 1): 3 nM

Compound: ATTCTGCTATGTCGACACCCAA (ATTCTGCTATGTCGACACCCAA; chemistry not given here) [SEQ. ID. NO. 46]
- % p24 production [3, 7]: 87%
- % p24 production [3, 8]: 81%
- inhibiting p24 production (in words) [3]: effective

Compound: ATTGGTACAAGCAGTTTTAGGCT (ATTGGTACAAGCAGTTTTAGGCT; chemistry not given here) [SEQ. ID. NO. 31]
- % p24 production [3, 9]: 100%
- % p24 production [3, 10]: 15%

Compound: CGGGCCTGTCGGGTCCCCTCGGGA (CGGGCCTGTCGGGTCCCCTCGGGA; chemistry not given here) [SEQ. ID. NO. 36]
- % p24 production [3, 9]: 71%
- % p24 production [3, 10]: 89%

Compound: CTGTCGGGTC CCCTCGGG (CTGTCGGGTCCCCTCGGG; chemistry not given here) [SEQ. ID. NO. 26]
- % p24 production [3, 8]: 44%
- inhibiting p24 production (in words) [3]: particularly effective

Compound: CTTCGGGCCTGTCGGGTCCCCTCGGG (CTTCGGGCCTGTCGGGTCCCCTCGGG; chemistry not given here) [SEQ. ID. NO. 18]
- % p24 production [3, 9]: 55%
- % p24 production [3, 10]: 0%
- inhibition [3]: 70-100%
- p24 production [3]: 0 to 30%
- IC50 (HIV-1 (LAI) [1]): 200 nM
- IC50 ([4]; AZT Resistant): 55 nM
- IC50 ([4]; AZT Sensitive): 80 nM
- IC50 ([5]; AZT Resistant): 18 nM
- IC50 ([5]; AZT Sensitive): 45 nM
- IC50 (HIV-2 (ROD)): 18 nM
- IC50 (HIV-1 (LAI) [2]): 120 nM
- IC50 (human bone marrow cells): 2000 to 3000 nM
- HGB ([6]; 0 hr): 16.0 ± 0.2 g/dL
- PLT ([6]; 0 hr): 111.8 ± 2.7 ×10^4 /μl
- RBC ([6]; 0 hr): 1032.3 ± 8.1 ×10^4 /μl
- WBC ([6]; 0 hr): 94.7 ± 18.2 ×10^2 /μl
- Body Weight ([6]; 24 hours): Unchanged
- Morphological findings, Bone Marrow ([6]; 24 hours, visual inspection): Normal
- Morphological findings, Heart ([6]; 24 hours, visual inspection): Normal
- Morphological findings, Kidney ([6]; 24 hours, visual inspection): Normal
- Morphological findings, Liver ([6]; 24 hours, visual inspection): Normal
- Morphological findings, Spleen ([6]; 24 hours, visual inspection): Slight Splenomegaly
- Morphological findings, Thymus ([6]; 24 hours, visual inspection): Normal
- HGB ([6]; 24 hr): 15.3 ± 0.5 g/dL
- PLT ([6]; 24 hr): 99.4 ± 0.9 ×10^4 /μl
- RBC ([6]; 24 hr): 990.3 ± 34.3 ×10^4 /μl
- WBC ([6]; 24 hr): 79.3 ± 15.3 ×10^2 /μl

Compound: GAGCTCTTCGTCGCTGTCTCCGCTTCT (GAGCTCTTCGTCGCTGTCTCCGCTTCT; chemistry not given here) [SEQ. ID. NO. 17]
- % p24 production [3, 9]: 99%
- % p24 production [3, 10]: 56%

Compound: GCCTATTCTGCTATGTCGACACCCAA (GCCTATTCTGCTATGTCGACACCCAA; chemistry not given here) [SEQ. ID. NO. 35]
- % p24 production [3, 9]: 56%
- % p24 production [3, 10]: 0%
- inhibition [3]: 70-100%
- p24 production [3]: 0 to 30%

Compound: GCCTGTCGGG TCCC (GCCTGTCGGGTCCC; chemistry not given here) [SEQ. ID. NO. 22]
- % p24 production [3, 7]: 3%
- % p24 production [3, 8]: 31%
- inhibiting p24 production (in words) [3]: particularly effective
- IC50 (human bone marrow cells): 20000 to 30000 nM

Compound: GCCTGTCGGG TCCT (GCCTGTCGGGTCCT; chemistry not given here) [SEQ. ID. NO. 20]
- % p24 production [3, 7]: 55%
- % p24 production [3, 8]: 42%
- inhibiting p24 production (in words) [3]: particularly effective

Compound: GCTTCTTCCTGCCATAGGAGA (GCTTCTTCCTGCCATAGGAGA; chemistry not given here) [SEQ. ID. NO. 33]
- % p24 production [3, 9]: 109%
- % p24 production [3, 10]: 74%

Compound: GGGCCTGTCGGGTCCCCTCGGG (GGGCCTGTCGGGTCCCCTCGGG; chemistry not given here) [SEQ. ID. NO. 29]
- % p24 production [3, 7]: 79%
- % p24 production [3, 8]: 58%
- inhibiting p24 production (in words) [3]: particularly effective

Compound: TTGGGAGGTG GGTTGCTTTG (TTGGGAGGTGGGTTGCTTTG; chemistry not given here) [SEQ. ID. NO. 14]
- % p24 production [3, 9]: 103%
- % p24 production [3, 10]: 66%
